Each structure is given as a SMILES string.

One may read the Ki as a measure of affinity in units of concentration, obtained from inhibition or displacement.

The first experiment deals with T1, human Y5 receptor (Homo sapiens, UniProt Q15761).
T1 construct: expressed in transfected cells; host or cells: mouse fibroblast LM(tk-) cells, e.g. L-hY5-7 (ATCC CRL-11995)
T1 sequence (Q15761 1-445): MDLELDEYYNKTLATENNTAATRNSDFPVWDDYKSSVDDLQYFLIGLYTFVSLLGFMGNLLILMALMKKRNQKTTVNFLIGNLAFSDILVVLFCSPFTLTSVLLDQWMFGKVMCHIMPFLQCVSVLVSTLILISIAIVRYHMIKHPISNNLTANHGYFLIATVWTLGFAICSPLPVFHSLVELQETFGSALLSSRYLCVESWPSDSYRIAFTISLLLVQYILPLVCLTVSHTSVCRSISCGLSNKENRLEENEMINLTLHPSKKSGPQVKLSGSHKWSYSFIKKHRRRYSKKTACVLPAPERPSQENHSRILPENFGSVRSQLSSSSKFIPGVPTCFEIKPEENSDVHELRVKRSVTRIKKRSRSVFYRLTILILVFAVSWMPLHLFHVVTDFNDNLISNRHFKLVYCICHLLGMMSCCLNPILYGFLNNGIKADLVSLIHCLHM
Nature of the experiment: Radioligand binding to membranes, cloned human Y5 receptor. The conditions noted are these: Table 1; read-out: Ki (nM) hNPY-5.
Description: Binding of the compounds of the present invention to human Y1, Y2, Y4, and Y5 receptors was evaluated using stably transfected 293 or LM(tk-) cells as described above.
Membranes were harvested from COS-7 cells 48 hours after transient transfection. Adherent cells were washed twice in ice-cold phosphate buffered saline (138 mM NaCl, 8.1 mM Na2HPO4, 2.5 mM KCl, 1.2 mM KH2PO4, 0.9 mM CaCl2, 0.5 mM MgCl2, pH 7.4) and lysed by sonication in ice-cold sonication buffer (20 mM Tris-HCl, 5 mM EDTA, pH 7.7). Large particles and debris were cleared by low speed centrifugation (200×g, 5 min, 4° C.). Membranes were collected from the supernatant fraction by centrifugation (32,000×g, 18 min, 4° C.), washed with ice-cold hypotonic buffer, and collected again by centrifugation (32,000×g, 18 min, 4° C.). The final membrane pellet was resuspended by sonication into a small volume of ice-cold binding buffer (˜1 ml for every 5 plates: 10 mM NaCl, 20 mM HEPES, 0.22 mM KH2PO4, 1.26 mM CaCl2, 0.81 mM MgSO4, pH 7.4). Protein concentration was measured by the Bradford method (Bradford, 1976) using Bio-Rad Reagent, with bovine serum albumin as a standard. Membranes were held on ice for up to one hour and used fresh, or flash-frozen and stored in liquid nitrogen.
Membranes were prepared similarly from 293, LM(tk-), and NIH-3T3 cells.
Membrane suspensions were diluted in binding buffer supplemented with 0.1% bovine serum albumin to yield an optimal membrane protein concentration so that ^125I-PYY (or alternative radioligand such as ^125I-NPY, ^125I-NYY3-36, or ^125I-[Leu^31Pro^34]PYY) bound by membranes in the assay was less than 10% of ^125I-PYY (or alternative radioligand) delivered to the sample (100,000 dpm/sample=0.08 nM for competition binding assays). ^125I-PYY (or alternative radioligand) and peptide competitors were also diluted to desired concentrations in supplemented binding buffer. Individual samples were then prepared in 96-well polypropylene microtiter plates by mixing ^125I-PYY (25 μL) (or alternative radioligand), competing peptides or supplemented binding buffer (25 μL), and finally, membrane suspensions (200 μL). Samples were incubated in a 30° C. water bath with constant shaking for 120 min. Incubations were terminated by filtration over Whatman GF/C filters (pre-coated with 1% polyethyleneimine and air-dried before use), followed by washing with 5 mL of ice-cold binding buffer. Filter-trapped membranes were impregnated with MeltiLex solid scintillant (Wallac, Turku, Finland) and counted for ^125I in a Wallac Beta-Plate Reader. Alternatively, incubations were carried out in GF/C filter plates (pre-coated with 1% polyethyleneimine and air-dried before use), followed by vacuum filtration and three washes of 300 μL of ice-cold binding buffer. 50 μL of UltimaGold (Packard) scintillant were added and counted for ^125I, in a Wallac MicroBeta Trilux. Non-specific binding was defined by 300 nM human NPY for all receptors except the Y4 subtypes; 100 nM human PP was used for the human Y4 and 100 nM rat PP for the rat Y4.
On to `CC(C)Nc1nc(NCC2CCC(CNS(=O)(=O)c3cccc4ccccc34)CC2)nc(NC(C)C)n1` (centres unmarked) [Example 4, N1-{[4-({[4,6-Di(isopropylamino)-1,3,5-triazin-2-yl]amino}methyl)cyclohexyl]methyl}-1-naphthalenesulfonamide], for which the Ki was 23 nM.

For the compound `CC(C)Nc1nc(NCC2CCC(CNS(=O)(=O)c3cccc4ccccc34)CC2)nc(N2C[C@@H](C)O[C@@H](C)C2)n1` (stereo partly drawn) [Example 25, N1-{[4-({[4-[(2R,6S)-2,6-dimethyl-1,4-oxazinan-4-yl]-6-(isopropylamino)-1,3,5-triazin-2-yl]amino}methyl)cyclohexyl]methyl}-1-naphthalenesulfonamide], the Ki is 135 nM. For `CC(C)Nc1nc(NCC2CCC(CNS(=O)(=O)c3cccc4ccccc34)CC2)nc(NC2CC2)n1` (centres unmarked) [Example 8, N1-[4-([4-(cyclopropylamino)-6-(isopropylamino)-1,3,5-triazin-2-yl]aminomethyl)cyclohexyl]methyl-1-naphthalenesulfonamide], the Ki amounted to 9 nM.

The experiment is the same for the next values; noted with them: Table 2; read-out: Ki (nM) hNPY-5.
With `CCNc1nc(NCC)nc(NCC2CCC(CNS(=O)(=O)c3ccccc3C)CC2)n1` (centres unmarked) [Example 33, N1-[4-([4,6-di(ethylamino)-1,3,5-triazin-2-yl]aminomethyl)cyclohexyl]methyl-2-methyl-1-benzenesulfonamide], the Ki came to 22 nM.

Still in this experiment, the particulars now being: Table 3; read-out: Ki (nM) hNPY-5.
Regarding `CC(C)Nc1nc(NCC2CCC(CNS(=O)(=O)NC3CC3)CC2)nc(NC2CC2)n1` (centres unmarked) [Example 47, N-cyclopropyl-N′-[4-([4-(cyclopropylamino)-6-(isopropylamino)-1,3,5-triazin-2-yl]aminomethyl)cyclohexyl]methylsulfamide], the Ki came out at 359 nM. Still for that read-out and setting: with `CC(C)(C)c1ccc(S(=O)(=O)NCC2CCC(CNc3nc(N4CCCC4)nc(N4CCCC4)n3)CC2)cc1` (centres unmarked) [Example 46, N1-[(4-[(4,6-ditetrahydro-1H-1-pyrrolyl-1,3,5-triazin-2-yl)amino]methylcyclohexyl)methyl]-4-(tert-butyl)-1-benzenesulfonamide] the figure was 68 nM.

The same experiment, now with this note: Table 5; read-out: Ki, nM hNPY-5.
`Cc1noc(C)c1S(=O)(=O)N[C@H]1CC[C@H](CNc2nc(-c3ccccn3)cs2)CC1` [Example 85, trans-2-(4-(3,5-Dimethyl-4-isoxazolyl)sulfonylamino)-cyclohexylmethylamino-4-(2-pyridyl)thiazole dihydrogen chloride]: the Ki was 3.8 nM. As for `CN(C)S(=O)(=O)NCCCCCNc1nc(-c2cccs2)cs1` [Example 91, N,N-Dimethyl-N′-(5-{[4-(2-thienyl)-1,3-thiazol-2-yl]amino}-pentyl)sulfamide], the Ki came out at 12.4 nM. On to `COc1ccc(C)cc1S(=O)(=O)NCCCCCNc1nc(-c2nccs2)cs1` [Example 88, N1-(5-[4-(1,3-thiazol-2-yl)-1,3-thiazol-2-yl]aminopentyl)-2-methoxy-5-methyl-1-benzenesulfonamide], for which the Ki is 13.7 nM. Turning to `Cc1nc(-c2cnc(NC[C@H]3CC[C@H](CNS(=O)(=O)N(C)C)CC3)s2)c(C)s1` [Example 99, trans-N′-[4-([5-(2,5-Dimethyl-1,3-thiazol-4-yl)-1,3-thiazol-2-yl]aminomethyl)cyclohexyl]methyl-N,N-dimethyl-sulfamide], the Ki worked out at 3.1 nM. Consider `COc1ccc(C)cc1S(=O)(=O)NC[C@H]1CC[C@H](Nc2nc(-c3nc(C)sc3C)cs2)CC1` [Example 89, trans-N1-[(4-[4-(2,5-Dimethyl-1,3-thiazol-4-yl)-1,3-thiazol-2-yl]aminocyclohexyl)methyl]-2-methoxy-5-methyl-1-benzenesulfonamide], for which the Ki worked out at 3.2 nM. Turning to `O=S(=O)(N[C@H]1CC[C@H](CNc2nc(-c3cccnc3)cs2)CC1)c1ccccc1F` [Example 86, trans-2-(4-(2-Fluorophenyl)sulfonylamino)cyclohexylmethyl-amino-4-(3-pyridyl)thiazole dihydrogen chloride], the Ki worked out at 12.3 nM.

The experiment is the same for the next values; noted with them: Table 6; read-out: Ki, nM hNPY-5.
With `O=S(=O)(NCCCCCNc1nc2c(s1)CCSc1ccccc1-2)c1ccc(F)cc1F` [Example 137, N1-[5-(4,5-Dihydrobenzo[2,3]thiepino[4,5-d][1,3]thiazol-2-ylamino)pentyl]-2,4-difluoro-1-benzenesulfonamide], the Ki came to 6.5 nM. Take `O=S(=O)(NCCCCCCNc1nc2c(s1)CCSc1ccccc1-2)c1cccc2ccccc12` [Example 114, N1-[6-(4,5-Dihydrobenzo[2,3]thiepino[4,5-d][1,3]thiazol-2-ylamino)hexyl]-1-naphthalenesulfonamide]: the Ki is 16.6 nM.

In the case of `O=S(=O)(NC[C@H]1CC[C@H](Nc2nc3c(s2)CCSc2ccccc2-3)CC1)c1ccc(-c2ccon2)s1` [Example 126, N2-{[4-(4,5-Dihydrobenzo[2,3]thiepino[4,5-d][1,3]thiazol-2-ylamino)cyclohexyl]methyl}-5-(3-isoxazolyl)-2-thiophenesulfonamide], the Ki is 34 nM. In the case of `O=S(=O)(NCCCCNc1nc2c(s1)CCSc1ccccc1-2)c1ccc(F)cc1F` [Example 138, N1-[4-(4,5-Dihydrobenzo[2,3]thiepino[4,5-d][1,3]thiazol-2-ylamino)butyl]-2,4-difluoro-1-benzenesulfonamide], the Ki was 119 nM. For the compound `O=S(=O)(NC[C@H]1CC[C@H](Nc2nc3c(s2)CCSc2ccccc2-3)CC1)c1cccc2ccccc12` [Example 121, N1-{[4-(4,5-Dihydrobenzo[2,3]thiepino[4,5-d][1,3]thiazol-2-ylamino)cyclohexyl]methyl}-1-naphthalenesulfonamide], the Ki was 18.4 nM. On to `Cc1cccc(F)c1S(=O)(=O)NCCCCNc1nc2c(s1)CCSc1ccccc1-2` [Example 135, N1-[4-(4,5-dihydrobenzo[2,3]thiepino[4,5-d][1,3]thiazol-2-ylamino)butyl]-2-fluoro-6-methyl-1-benzenesulfonamide], for which the Ki was 110 nM. Turning to `O=S(=O)(NC[C@H]1CC[C@H](Nc2nc3c(s2)CCSc2ccccc2-3)CC1)c1ccc(-c2ccccn2)s1` [Example 120, N2-{[4-(4,5-Dihydrobenzo[2,3]thiepino[4,5-d][1,3]thiazol-2-ylamino)cyclohexyl]methyl}-5-(2-pyridyl)-2-thiophenesulfonamide], the Ki was 54 nM. Take `O=C(NCCCCCNc1nc2c(s1)CCSc1ccccc1-2)c1cccs1` [Example 141, N2-[5-(4,5-Dihydrobenzo[2,3]thiepino[4,5-d][1,3]thiazol-2-ylamino)pentyl]-2-thiophenecarboxamide]: the Ki was 84 nM. Same read-out and setting: the result for `O=S(=O)(NCCCCCCNc1nc2c(s1)CCSc1ccccc1-2)c1cccc2nsnc12` [Example 112, N4-[6-(4,5-Dihydrobenzo[2,3]thiepino[4,5-d][1,3]thiazol-2-ylamino)hexyl]-2,1,3-benzothiadiazole-4-sulfonamide] reads 4.4 nM. Take `O=[N+]([O-])c1ccccc1S(=O)(=O)NCCCCCCNc1nc2c(s1)CCSc1ccccc1-2` [Example 116, N1-[6-(4,5-Dihydrobenzo[2,3]thiepino[4,5-d][1,3]thiazol-2-ylamino)hexyl]-2-nitro-1-benzenesulfonamide]: the Ki is 7.1 nM. Consider `CN(C)c1cccc2c(S(=O)(=O)NCCCCCNc3nc4c(s3)CCSc3ccccc3-4)cccc12` [Example 123, N1-[5-(4,5-Dihydrobenzo[2,3]thiepino[4,5-d][1,3]thiazol-2-ylamino)pentyl]-5-(dimethylamino)-1 naphthalenesulfonamide], for which the Ki was determined as 161 nM. On the same count and under the same terms, the result for `O=S(=O)(NC[C@H]1CC[C@H](Nc2nc3c(s2)CCSc2ccccc2-3)CC1)c1cccc(C(F)(F)F)c1` [Example 150, N1-{[4-(4,5-Dihydrobenzo[2,3]thiepino[4,5-d][1,3]thiazol-2-ylamino)cyclohexyl]methyl}-3-(trifluoromethyl)-1-benzenesulfonamide] reads 21 nM. For the compound `O=S(=O)(NC[C@H]1CC[C@H](Nc2nc3c(s2)CCSc2ccccc2-3)CC1)c1ccc(F)cc1F` [Example 151, N1-{[4-(4,5-Dihydrobenzo[2,3]thiepino[4,5-d][1,3]thiazol-2-ylamino)cyclohexyl]methyl}-2,4-difluoro-1-benzenesulfonamide], the Ki worked out at 7.9 nM. On to `CCS(=O)(=O)NCCCCCCNc1nc2c(s1)CCSc1ccccc1-2` [Example 105, N1-[6-(4,5-Dihydrobenzo[2,3]thiepino[4,5-d][1,3]thiazol-2-ylamino)hexyl]-1-ethanesulfonamide], for which the Ki was determined as 5.4 nM. Regarding `O=S(=O)(NCCCCCCNc1nc2c(s1)CCSc1ccccc1-2)c1ccc(F)cc1F` [Example 145, N1-[6-(4,5-Dihydrobenzo[2,3]thiepino[4,5-d][1,3]thiazol-2-ylamino)hexyl]-2,4-difluoro-1-benzenesulfonamide], the Ki was determined as 4.1 nM.

On to `COCCN(C=O)[C@H]1CC[C@H](CNc2nc3c(s2)CCSc2ccccc2-3)CC1` [Example 163, trans-N-4-[(4,5-dihydrobenzo[2,3]thiepino[4,5-d][1,3]thiazol-2-ylamino)methyl]cyclohexyl-N-(2-methoxyethyl)formamide], for which the Ki amounted to 12.3 nM. Consider `Cn1cnc(S(=O)(=O)NC[C@H]2CC[C@H](Nc3nc4c(s3)CCSc3ccccc3-4)CC2)c1` [Example 125, N4-{[4-(4,5-Dihydrobenzo[2,3]thiepino[4,5-d][1,3]thiazol-2-ylamino)cyclohexyl]methyl}-1-methyl-1h-4-imidazolesulfonamide], for which the Ki is 33 nM.
